Key:
MdmX = molecular target: T1, MdmX (Homo sapiens, UniProt O15151); test: Fluorescence polarization competition assay (displacement of P2 peptide), MdmX; details: read-out: Ki towards MdmX; FP assay
T1 sequence (O15151 18-111): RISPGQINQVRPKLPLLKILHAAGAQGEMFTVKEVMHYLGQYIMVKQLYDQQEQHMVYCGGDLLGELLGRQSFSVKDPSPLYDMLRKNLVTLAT

effector T cells = details: T cells attenuated by soluble and membrane-bound PD-L1; ref [59]; cited from earlier work
PD-1/PD-L1 complex = molecular target: T2, PD-1/PD-L1 complex (Homo sapiens, UniProt Q9NZQ7); details: ref [59]; cited from earlier work
T2 construct: made in house; host or cells: E. coli BL21 (DE3)

(N66A)PD-1/PD-L1 complex = molecular target: T3, (N66A)PD-1/PD-L1 complex (Homo sapiens, UniProt Q9NZQ7); test: w-AIDA-NMR on (N66A)PD-1/PD-L1 complex; type: binding
T3 construct: made in house; host or cells: E. coli BL21 (DE3)
T3 sequence (Q9NZQ7 18-134, stated change not applied, one chain of several): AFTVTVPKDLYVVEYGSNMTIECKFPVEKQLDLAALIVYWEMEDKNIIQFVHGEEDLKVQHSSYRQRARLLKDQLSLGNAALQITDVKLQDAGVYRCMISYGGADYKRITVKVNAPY

T2 sequence (Q9NZQ7 18-134, one chain of several): as the sequence (Q9NZQ7 18-134, stated change not applied, one chain of several) above

CC(C)(C)NC(=O)C(c1c(C(=O)O)[nH]c2cc(Cl)ccc12)N(C=O)Cc1cc(F)cc(F)c1F (centres unmarked) [compound 4]
Ki (MdmX): 27 µM

Cc1c(COc2cc(OCc3cccc(C#N)c3)c(CN3C[C@H](O)C[C@@H]3C(=O)O)cc2Cl)cccc1-c1ccc2c(c1)OCCO2 [BMS-1166]
Activation of effector T cells (effector T cells): activates the effector T cells | Dissociation of human PD-1/PD-L1 complex in vitro (PD-1/PD-L1 complex): efficiently dissociates the human PD-1/PD-L1 complex in vitro | Recovery of PD-1 signals in 1D 1H-NMR spectra ((N66A)PD-1/PD-L1 complex; (N66A)PD-1/PD-L1 complex, molar ratio 1:1): full recovery of the PD-1 signals | Dissociation of (N66A)PD-1/PD-L1 complex (recovery of 2D HMQC signals) ((N66A)PD-1/PD-L1 complex; equimolar amount of compound): full recovery of 2D HMQC spectrum

From paper PMC7412237, “Competition NMR for Detection of Hit/Lead Inhibitors of Protein–Protein Interactions” (Molecules, 2020)
